Entries after “also recorded” stand apart in the source; their conditions may differ.
Legend:
Assay type in all cases: cell-based
[1] = system: Saccharomyces cerevisiae W303; test: Growth inhibition by para-aminobenzoic acid in aerobic culture (OD610); conditions: aerobic shaking culture 30° C.
Procedure: (§1) Experiments about growth inhibition by para-aminobenzoic acid in aerobic culture were carried out, regarding Corynebacterium glutamicum, Escherichia coli, Streptomyces lividans, Pseudomonas putida, and Saccharomyces cerevisiae. No example of Pseudomonas putida S12 used in the present experiment has been reported to be a para-aminobenzoic acid producing host, but it was used as a comparative example, since it has been reported to be a solvent resistant bacterium and could be considered to have excellent resistance to para-aminobenzoic acid.
Saccharomyces cerevisiae W303 was applied to YEPD-agar plate [containing 2% polypeptone, 1% yeast extract, 2% glucose, and 1.5% agar] and was incubated at 30° C. for 20 hours in a dark place. Saccharomyces cerevisiae grown on the plate described above was inoculated in the YEPD-liquid medium [containing 2% polypeptone, 1% yeast extract, and 2% glucose], and aerobic shaking culture was carried out at 30° C. for 13 hours. Saccharomyces cerevisiae grown under the above-described conditions was inoculated in 100 ml of YEPD-liquid medium so that the initial bacterial cell concentration OD610=0.05. […] The growth of bacterial cells was determined by measuring OD610.
(§2) How the addition of para-aminobenzoic acid to medium influenced aerobic growth was analyzed, and the results are shown in FIG. 1.

[2] = system: Corynebacterium glutamicum strain R; test: Influence of para-aminobenzoic acid on glucose consumption rate (jar fermenter); conditions: 0, 50, 100 or 200 mM para-aminobenzoic acid, 5% glucose, 33° C., pH 7.0
Procedure: Influences of para-aminobenzoic acid on the glucose consumption rate were examined by a method described below, using Corynebacterium glutamicum strain R.
After a wild strain of Corynebacterium glutamicum was inoculated in 10 ml of the A-liquid medium containing 2% glucose, aerobic shaking culture was carried out at 33° C. for 18 hours. After the same strain was inoculated in 100 ml of the A-liquid medium containing 2% glucose, aerobic shaking culture was carried out at 33° C. for 12 hours. […]
Bacterial cells of the strain grown under the above-described conditions were collected by centrifugation (4° C., 5000×g, 10 minutes), and the bacterial cells thus obtained were washed with 0.9% sodium chloride aqueous solution once. […] The glucose concentration in the reaction solution was monitored by using a glucose sensor.

[3] = system: Corynebacterium glutamicum strain R; test: Growth inhibition by para-aminobenzoic acid in aerobic culture (OD610); conditions: aerobic shaking culture 33° C.
Procedure: as §1
Corynebacterium glutamicum strain R was applied to an A-agar plate containing glucose at 4%, and was incubated at 33° C. for 15 hours in a dark place. One platinum loop of Corynebacterium glutamicum grown on the plate described above was inoculated in a test tube having therein 10 ml of the A-liquid medium containing of glucose at 4%, and was subjected to aerobic shaking culture at 33° C. for 15 hours. Corynebacterium glutamicum grown under the above-described conditions was inoculated in 10 ml of the A-liquid medium containing glucose at 4% so that the initial bacterial cell concentration OD610=0.05. […] The growth of bacterial cells was determined by measuring OD610.
as §2

[4] = system: Streptomyces lividans 1326; test: as above; conditions: for growth of Streptomyces lividans 1326: aerobic shaking culture 28° C.
Procedure: as §1
Streptomyces lividans 1326 was applied to LB-agar plate, and was incubated at 28° C. for 24 hours in a dark place. Streptomyces lividans grown on the plate described above was inoculated in LB-liquid medium with a coil spring, and aerobic shaking culture was carried out at 28° C. for 24 hours. Streptomyces lividans grown under the above-described conditions was inoculated in 10 ml of LB-liquid medium with a coil spring so that the initial bacterial cell concentration OD610=0.2. Simultaneously, para-aminobenzoic acid was added so that the final concentrations thereof became 0, 100, 200, 300 mM, and aerobic shaking culture was carried out at 28° C. The growth of bacterial cells was determined by measuring OD610.
as §2

Pseudomonas putida S12 = test: as above
Procedure: as §1
Pseudomonas putida S12 was applied to the LB-agar plate, and was incubated at 30° C. for 15 hours in a dark place. Pseudomonas putida grown on the plate described above was inoculated in the LB-liquid medium, and aerobic shaking culture was carried out at 30° C. for 13 hours. Pseudomonas putida grown under the above-described conditions was inoculated in 100 ml of LB-liquid medium so that the initial bacterial cell concentration OD610=0.05, simultaneously, para-aminobenzoic acid was added so that the final concentrations thereof became 0, 100, 200, 300 mM, and aerobic shaking culture was carried out at 30° C. The growth of bacterial cells was determined by measuring absorbance of OD610.
as §2

Escherichia coli JM109 = test: as above; conditions: aerobic shaking culture 37° C.
Procedure: as §1
Escherichia coli JM109 was applied to LB-agar plate [containing 1% polypeptone, 0.5% yeast extract, 0.5% sodium chloride, and 1.5% agar], and was incubated at 37° C. for 15 hours in a dark place. Escherichia coli grown on the plate described above was inoculated in LB-liquid medium [containing 1% polypeptone, 0.5% yeast extract, and 0.5% sodium chloride], and was subjected to aerobic shaking culture at 37° C. for 13 hours. Escherichia coli grown under the above-described conditions was inoculated in 100 ml of LB-liquid medium so that the initial bacterial cell concentration OD610=0.05. […] The growth of bacterial cells was determined by measuring OD610.
as §2

Nc1ccc(C(=O)O)cc1 [para-aminobenzoic acid, 4-aminobenzoic acid]
growth of Saccharomyces cerevisiae W303 ([1]; 200 mM para-aminobenzoic acid): strongly inhibited | growth of Saccharomyces cerevisiae W303 ([1]; 300 mM para-aminobenzoic acid): extremely strongly inhibited; also recorded: substantially completely inhibited | saccharide (glucose) consumption rate of Corynebacterium glutamicum [2]: no substantial decrease | growth of Corynebacterium glutamicum strain R ([3]; 300 mM para-aminobenzoic acid): able to grow | growth of Corynebacterium glutamicum ([3]; 400 mM para-aminobenzoic acid): able to grow | growth of Streptomyces lividans 1326 ([4]; 100 mM para-aminobenzoic acid): significantly inhibited | growth of Streptomyces lividans 1326 ([4]; 200 mM para-aminobenzoic acid): substantially completely inhibited | growth of Streptomyces lividans ([4]; 300 mM para-aminobenzoic acid): substantially completely inhibited | growth of Pseudomonas putida S12 (Pseudomonas putida S12; 100 mM para-aminobenzoic acid, aerobic shaking culture 30° C.): substantially completely inhibited | growth of Pseudomonas putida (Pseudomonas putida S12; 300 mM para-aminobenzoic acid): substantially completely inhibited | growth of Escherichia coli JM109 (Escherichia coli JM109; 100 mM para-aminobenzoic acid): significantly inhibited | growth of Escherichia coli JM109 (Escherichia coli JM109; 300 mM para-aminobenzoic acid): substantially completely inhibited

Source: patent US10988743B2, “Coryneform bacterial transformant and method for producing 4-aminobenzoic acid or salt thereof using same” (RESEARCH INSTITUTE OF INNOVATIVE TECHNOLOGY FOR THE EARTH, priority 2016, dated 2021)
